Assay results: BigSolDB 2.1

CN1CCN(C2=Nc3cc(Cl)ccc3Nc3ccccc32)CC1
Conditions | solubility (mole fraction)
in 1,2-dichloroethane, 283.15 K | 0.0117
in 1,2-dichloroethane, 288.15 K | 0.0157
in 1,2-dichloroethane, 293.15 K | 0.0183
in 1,2-dichloroethane, 298.15 K | 0.0215
in 1,2-dichloroethane, 303.15 K | 0.0243
in 1,2-dichloroethane, 308.15 K | 0.0285
in 1,2-dichloroethane, 313.15 K | 0.0314
in 1,2-dichloroethane, 318.15 K | 0.0386
in 1,2-dichloroethane, 323.15 K | 0.0464
in 1,2-dichloroethane, 328.15 K | 0.0573
in 1,2-dichloroethane, 333.15 K | 0.0648
in DMF, 283.15 K | 0.0781
in DMF, 288.15 K | 0.0844
in DMF, 293.15 K | 0.0893
in DMF, 298.15 K | 0.0936
in DMF, 303.15 K | 0.101
in DMF, 308.15 K | 0.111
in DMF, 313.15 K | 0.122
in DMF, 318.15 K | 0.133
in DMF, 323.15 K | 0.145
in DMF, 328.15 K | 0.155
in DMF, 333.15 K | 0.17
in DMSO, 293.15 K | 0.0596
in DMSO, 298.15 K | 0.064
in DMSO, 303.15 K | 0.0709
in DMSO, 308.15 K | 0.0836
in DMSO, 313.15 K | 0.0949
in DMSO, 318.15 K | 0.109
in DMSO, 323.15 K | 0.119
in DMSO, 328.15 K | 0.139
in DMSO, 333.15 K | 0.159
in NMP, 283.15 K | 0.0305
in NMP, 288.15 K | 0.0406
in NMP, 293.15 K | 0.0474
in NMP, 298.15 K | 0.0525
in NMP, 303.15 K | 0.0606
in NMP, 308.15 K | 0.0687
in NMP, 313.15 K | 0.075
in NMP, 318.15 K | 0.0827
in NMP, 323.15 K | 0.0987
in NMP, 328.15 K | 0.113
in NMP, 333.15 K | 0.118
in acetone, 283.15 K | 0.00791
in acetone, 288.15 K | 0.00914
in acetone, 293.15 K | 0.0122
in acetone, 298.15 K | 0.0139
in acetone, 303.15 K | 0.0164
in acetone, 308.15 K | 0.018
in acetone, 313.15 K | 0.0201
in acetone, 318.15 K | 0.0236
in acetone, 323.15 K | 0.0278
in benzene, 283.15 K | 0.00583
in benzene, 288.15 K | 0.00619
in benzene, 293.15 K | 0.00676
in benzene, 298.15 K | 0.00771
in benzene, 303.15 K | 0.00967
in benzene, 308.15 K | 0.0119
in benzene, 313.15 K | 0.0152
in benzene, 318.15 K | 0.0181
in benzene, 323.15 K | 0.0208
in benzene, 328.15 K | 0.0259
in benzene, 333.15 K | 0.0303
in ethanol, 283.15 K | 0.0057
in ethanol, 288.15 K | 0.00581
in ethanol, 293.15 K | 0.00644
in ethanol, 298.15 K | 0.00702
in ethanol, 303.15 K | 0.00767
in ethanol, 308.15 K | 0.00837
in ethanol, 313.15 K | 0.0089
in ethanol, 318.15 K | 0.0103
in ethanol, 323.15 K | 0.0112
in ethanol, 328.15 K | 0.0128
in ethanol, 333.15 K | 0.0158
in isopropanol, 283.15 K | 0.00272
in isopropanol, 288.15 K | 0.00278
in isopropanol, 293.15 K | 0.00296
in isopropanol, 298.15 K | 0.00327
in isopropanol, 303.15 K | 0.00374
in isopropanol, 308.15 K | 0.0044
in isopropanol, 313.15 K | 0.00503
in isopropanol, 318.15 K | 0.00591
in isopropanol, 323.15 K | 0.00643
in isopropanol, 328.15 K | 0.00846
in isopropanol, 333.15 K | 0.0103
in methanol, 283.15 K | 0.00638
in methanol, 288.15 K | 0.00648
in methanol, 293.15 K | 0.00713
in methanol, 298.15 K | 0.00785
in methanol, 303.15 K | 0.0088
in methanol, 308.15 K | 0.00975
in methanol, 313.15 K | 0.0103
in methanol, 318.15 K | 0.0109
in methanol, 323.15 K | 0.0118
in methanol, 328.15 K | 0.0143
in n-propanol, 283.15 K | 0.00617
in n-propanol, 288.15 K | 0.00619
in n-propanol, 293.15 K | 0.00669
in n-propanol, 298.15 K | 0.00754
in n-propanol, 303.15 K | 0.00794
in n-propanol, 308.15 K | 0.00863
in n-propanol, 313.15 K | 0.0109
in n-propanol, 318.15 K | 0.0127
in n-propanol, 323.15 K | 0.0142
in n-propanol, 328.15 K | 0.0171
in n-propanol, 333.15 K | 0.0199
in toluene, 283.15 K | 0.00352
in toluene, 288.15 K | 0.00465
in toluene, 293.15 K | 0.00549
in toluene, 298.15 K | 0.00651
in toluene, 303.15 K | 0.0075
in toluene, 308.15 K | 0.00858
in toluene, 313.15 K | 0.0105
in toluene, 318.15 K | 0.0118
in toluene, 323.15 K | 0.014
in toluene, 328.15 K | 0.0164
in toluene, 333.15 K | 0.0202
